Measured values published in ChEMBL document CHEMBL4017512 (J Med Chem, 2017).

Legend:
[1] = tested on: HCT-116; assay: Antiproliferative activity against human HCT116 cells after 72 hrs by phosphatase assay; type: functional, cell-based; details: HCT-116, 72 h
[2] = Cytotoxicity against human HCT116/VM46 cells assessed as reduction in cell viability after 72 hrs by phosphatase assay; type: cell-based; details: HCT-116/VM46, 72 h
[3] = tested on: L1210; assay: Antiproliferative activity against mouse L1210 cells after 72 hrs by phosphatase assay; type: functional, cell-based; details: L1210, 72 h

Row | IC50 [1] | IC50 [3] | SMILES | IC50 [2]
1 | 5.3 nM | 5.7 nM | CC[C@]1(NC(=O)c2cccc(F)c2)C[C@H]2CN(CCc3c([nH]c4ccccc34)[C@@](C(=O)OC)(c3cc4c(cc3OC)N(C)[C@H]3[C@@](O)(C(=O)OC)[C@H](OC(C)=O)[C@]5(CC)C=CCN6CC[C@]43[C@@H]65)C2)C1 | 25 nM
2 | 1.4 nM | 2.7 nM | CC[C@]1(NC(=O)c2ccc(Br)cc2)C[C@H]2CN(CCc3c([nH]c4ccccc34)[C@@](C(=O)OC)(c3cc4c(cc3OC)N(C)[C@H]3[C@@](O)(C(=O)OC)[C@H](OC(C)=O)[C@]5(CC)C=CCN6CC[C@]43[C@@H]65)C2)C1 | 10 nM
3 | 60 nM | 50 nM | CCCCCCCC(=O)N[C@@]1(CC)C[C@H]2CN(CCc3c([nH]c4ccccc34)[C@@](C(=O)OC)(c3cc4c(cc3OC)N(C)[C@H]3[C@@](O)(C(=O)OC)[C@H](OC(C)=O)[C@]5(CC)C=CCN6CC[C@]43[C@@H]65)C2)C1 | 420 nM
4 | 0.7 nM | 0.76 nM | CC[C@]1(NC(=O)c2ccc(CNC(=O)OC(C)(C)C)cc2)C[C@H]2CN(CCc3c([nH]c4ccccc34)[C@@](C(=O)OC)(c3cc4c(cc3OC)N(C)[C@H]3[C@@](O)(C(=O)OC)[C@H](OC(C)=O)[C@]5(CC)C=CCN6CC[C@]43[C@@H]65)C2)C1 | 50 nM
5 | 4.6 nM | 4.3 nM | CC[C@]1(NC(=O)c2ccc(SC(C)C)cc2)C[C@H]2CN(CCc3c([nH]c4ccccc34)[C@@](C(=O)OC)(c3cc4c(cc3OC)N(C)[C@H]3[C@@](O)(C(=O)OC)[C@H](OC(C)=O)[C@]5(CC)C=CCN6CC[C@]43[C@@H]65)C2)C1 | 55 nM
6 | 0.6 nM | 0.5 nM | CC[C@]1(NC(=O)c2ccc3ncsc3c2)C[C@H]2CN(CCc3c([nH]c4ccccc34)[C@@](C(=O)OC)(c3cc4c(cc3OC)N(C)[C@H]3[C@@](O)(C(=O)OC)[C@H](OC(C)=O)[C@]5(CC)C=CCN6CC[C@]43[C@@H]65)C2)C1 | 20 nM
7 | 0.7 nM | 0.6 nM | CC[C@]1(NC(=O)c2ccc3scnc3c2)C[C@H]2CN(CCc3c([nH]c4ccccc34)[C@@](C(=O)OC)(c3cc4c(cc3OC)N(C)[C@H]3[C@@](O)(C(=O)OC)[C@H](OC(C)=O)[C@]5(CC)C=CCN6CC[C@]43[C@@H]65)C2)C1 | 25 nM
8 | 0.8 nM | 1.5 nM | CC[C@]1(NC(=O)c2ccc(NC(=O)OC)cc2)C[C@H]2CN(CCc3c([nH]c4ccccc34)[C@@](C(=O)OC)(c3cc4c(cc3OC)N(C)[C@H]3[C@@](O)(C(=O)OC)[C@H](OC(C)=O)[C@]5(CC)C=CCN6CC[C@]43[C@@H]65)C2)C1 | 55 nM
9 | 3.9 nM | 4.1 nM | CC[C@]1(NC(=O)c2ccc(N(C)C(=O)OC(C)(C)C)cc2)C[C@H]2CN(CCc3c([nH]c4ccccc34)[C@@](C(=O)OC)(c3cc4c(cc3OC)N(C)[C@H]3[C@@](O)(C(=O)OC)[C@H](OC(C)=O)[C@]5(CC)C=CCN6CC[C@]43[C@@H]65)C2)C1 | 35 nM
10 | 6.5 nM | 5 nM | CC[C@]1(NC(=O)c2ccc3cc(NC(=O)OC(C)(C)C)ccc3c2)C[C@H]2CN(CCc3c([nH]c4ccccc34)[C@@](C(=O)OC)(c3cc4c(cc3OC)N(C)[C@H]3[C@@](O)(C(=O)OC)[C@H](OC(C)=O)[C@]5(CC)C=CCN6CC[C@]43[C@@H]65)C2)C1 | 60 nM
11 | 55 nM | 50 nM | CC[C@]1(NC(=O)c2ccccc2Cl)C[C@H]2CN(CCc3c([nH]c4ccccc34)[C@@](C(=O)OC)(c3cc4c(cc3OC)N(C)[C@H]3[C@@](O)(C(=O)OC)[C@H](OC(C)=O)[C@]5(CC)C=CCN6CC[C@]43[C@@H]65)C2)C1 | 390 nM
12 | 8.7 nM | 8.5 nM | CC[C@]1(NC(=O)c2ccc(Cl)c(Cl)c2)C[C@H]2CN(CCc3c([nH]c4ccccc34)[C@@](C(=O)OC)(c3cc4c(cc3OC)N(C)[C@H]3[C@@](O)(C(=O)OC)[C@H](OC(C)=O)[C@]5(CC)C=CCN6CC[C@]43[C@@H]65)C2)C1 | 80 nM
13 | 15 nM | 25 nM | CCC(C)c1ccc(C(=O)N[C@@]2(CC)C[C@H]3CN(CCc4c([nH]c5ccccc45)[C@@](C(=O)OC)(c4cc5c(cc4OC)N(C)[C@H]4[C@@](O)(C(=O)OC)[C@H](OC(C)=O)[C@]6(CC)C=CCN7CC[C@]54[C@@H]76)C3)C2)cc1 (some centres not stated) | 65 nM
14 | 40 nM | 55 nM | CCCCCC(=O)N[C@@]1(CC)C[C@H]2CN(CCc3c([nH]c4ccccc34)[C@@](C(=O)OC)(c3cc4c(cc3OC)N(C)[C@H]3[C@@](O)(C(=O)OC)[C@H](OC(C)=O)[C@]5(CC)C=CCN6CC[C@]43[C@@H]65)C2)C1 | 450 nM
15 | 2.3 nM | 5.4 nM | CC[C@]1(NC(=O)c2cccc(SC)c2)C[C@H]2CN(CCc3c([nH]c4ccccc34)[C@@](C(=O)OC)(c3cc4c(cc3OC)N(C)[C@H]3[C@@](O)(C(=O)OC)[C@H](OC(C)=O)[C@]5(CC)C=CCN6CC[C@]43[C@@H]65)C2)C1 | 20 nM
16 | 0.6 nM | 0.6 nM | CC[C@]1(NC(=O)c2ccc3ncoc3c2)C[C@H]2CN(CCc3c([nH]c4ccccc34)[C@@](C(=O)OC)(c3cc4c(cc3OC)N(C)[C@H]3[C@@](O)(C(=O)OC)[C@H](OC(C)=O)[C@]5(CC)C=CCN6CC[C@]43[C@@H]65)C2)C1 | 30 nM
17 | 6.1 nM | 4.9 nM | CCSc1ccc(C(=O)N[C@@]2(CC)C[C@H]3CN(CCc4c([nH]c5ccccc45)[C@@](C(=O)OC)(c4cc5c(cc4OC)N(C)[C@H]4[C@@](O)(C(=O)OC)[C@H](OC(C)=O)[C@]6(CC)C=CCN7CC[C@]54[C@@H]76)C3)C2)cc1 | 35 nM
18 | 4.8 nM | 6.1 nM | CC[C@]1(NC(=O)c2ccc3c(c2)CCCCC3)C[C@H]2CN(CCc3c([nH]c4ccccc34)[C@@](C(=O)OC)(c3cc4c(cc3OC)N(C)[C@H]3[C@@](O)(C(=O)OC)[C@H](OC(C)=O)[C@]5(CC)C=CCN6CC[C@]43[C@@H]65)C2)C1 | 35 nM
19 | 20 nM | 40 nM | CC[C@]1(NC(=O)c2cnccn2)C[C@H]2CN(CCc3c([nH]c4ccccc34)[C@@](C(=O)OC)(c3cc4c(cc3OC)N(C)[C@H]3[C@@](O)(C(=O)OC)[C@H](OC(C)=O)[C@]5(CC)C=CCN6CC[C@]43[C@@H]65)C2)C1 | 550 nM

Row | SMILES | IC50 [1] | IC50 [3] | IC50 [2]
20 | CC[C@]1(NC(=O)c2ccc(C(C)C)cc2)C[C@H]2CN(CCc3c([nH]c4ccccc34)[C@@](C(=O)OC)(c3cc4c(cc3OC)N(C)[C@H]3[C@@](O)(C(=O)OC)[C@H](OC(C)=O)[C@]5(CC)C=CCN6CC[C@]43[C@@H]65)C2)C1 | 6.4 nM | 5.4 nM | 13 nM
21 | CC[C@]1(NC(=O)c2coc3ccccc23)C[C@H]2CN(CCc3c([nH]c4ccccc34)[C@@](C(=O)OC)(c3cc4c(cc3OC)N(C)[C@H]3[C@@](O)(C(=O)OC)[C@H](OC(C)=O)[C@]5(CC)C=CCN6CC[C@]43[C@@H]65)C2)C1 | 4.6 nM | 4 nM | 35 nM
22 | CC[C@]1(NC(=O)c2csc3ccccc23)C[C@H]2CN(CCc3c([nH]c4ccccc34)[C@@](C(=O)OC)(c3cc4c(cc3OC)N(C)[C@H]3[C@@](O)(C(=O)OC)[C@H](OC(C)=O)[C@]5(CC)C=CCN6CC[C@]43[C@@H]65)C2)C1 | 5.7 nM | 5.2 nM | 20 nM
23 | CC[C@]1(NC(=O)C2CC2)C[C@H]2CN(CCc3c([nH]c4ccccc34)[C@@](C(=O)OC)(c3cc4c(cc3OC)N(C)[C@H]3[C@@](O)(C(=O)OC)[C@H](OC(C)=O)[C@]5(CC)C=CCN6CC[C@]43[C@@H]65)C2)C1 | 6.1 nM | 5.5 nM | 95 nM
24 | CC[C@]1(NS(=O)(=O)c2ccc3ccccc3c2)C[C@H]2CN(CCc3c([nH]c4ccccc34)[C@@](C(=O)OC)(c3cc4c(cc3OC)N(C)[C@H]3[C@@](O)(C(=O)OC)[C@H](OC(C)=O)[C@]5(CC)C=CCN6CC[C@]43[C@@H]65)C2)C1 | 60 nM | 50 nM | 440 nM
25 | CC[C@]1(NC(=O)c2ccc3ccoc3c2)C[C@H]2CN(CCc3c([nH]c4ccccc34)[C@@](C(=O)OC)(c3cc4c(cc3OC)N(C)[C@H]3[C@@](O)(C(=O)OC)[C@H](OC(C)=O)[C@]5(CC)C=CCN6CC[C@]43[C@@H]65)C2)C1 | 2.2 nM | 3.3 nM | 6.5 nM
26 | CC[C@]1(NC(=O)c2ccc(S(=O)(=O)F)cc2)C[C@H]2CN(CCc3c([nH]c4ccccc34)[C@@](C(=O)OC)(c3cc4c(cc3OC)N(C)[C@H]3[C@@](O)(C(=O)OC)[C@H](OC(C)=O)[C@]5(CC)C=CCN6CC[C@]43[C@@H]65)C2)C1 | 30 nM | 20 nM | 310 nM
27 | CC[C@]1(NC(=O)c2ccncc2)C[C@H]2CN(CCc3c([nH]c4ccccc34)[C@@](C(=O)OC)(c3cc4c(cc3OC)N(C)[C@H]3[C@@](O)(C(=O)OC)[C@H](OC(C)=O)[C@]5(CC)C=CCN6CC[C@]43[C@@H]65)C2)C1 | 0.4 nM | 0.4 nM | 55 nM
28 | CC[C@]1(NC(=O)c2ccc(OC)c(OC)c2)C[C@H]2CN(CCc3c([nH]c4ccc(F)cc34)[C@@](C(=O)OC)(c3cc4c(cc3OC)N(C)[C@H]3[C@@](O)(C(=O)OC)[C@H](OC(C)=O)[C@]5(CC)C=CCN6CC[C@]43[C@@H]65)C2)C1 | 0.08 nM | 0.06 nM | 0.9 nM
29 | CC[C@]1(NC(=O)c2cc(C)c(OC)c(C)c2)C[C@H]2CN(CCc3c([nH]c4ccccc34)[C@@](C(=O)OC)(c3cc4c(cc3OC)N(C)[C@H]3[C@@](O)(C(=O)OC)[C@H](OC(C)=O)[C@]5(CC)C=CCN6CC[C@]43[C@@H]65)C2)C1 | 0.65 nM | 0.5 nM | 3.5 nM
